Columns and labels:
Type in all cases: functional
[1] = tested on: Rattus norvegicus; assay: Inhibition of passive cutaneous anaphylaxis (PCA) in Charles Rivers Sprague-Dawley rat after intravenous administration; value range from 0.8 to 1.4
[2] = tested on: Rattus norvegicus; assay: Inhibition of passive cutaneous anaphylaxis (PCA) in Charles Rivers Sprague-Dawley rat after intravenous administration; value range from 0.3 to 0.5
[3] = tested on: Rattus norvegicus; assay: Inhibition of passive cutaneous anaphylaxis (PCA) in Charles Rivers Sprague-Dawley rat after intravenous administration; value range from 4.1 to 5.8
[4] = tested on: Rattus norvegicus; assay: Inhibition of passive cutaneous anaphylaxis (PCA) in Charles Rivers Sprague-Dawley rat after intravenous administration
[5] = tested on: Rattus norvegicus; assay: Inhibition of passive cutaneous anaphylaxis (PCA) in Charles Rivers Sprague-Dawley rat after intravenous administration; value range from 1.4 to 2.1
[6] = tested on: Rattus norvegicus; assay: Inhibition of passive cutaneous anaphylaxis (PCA) in Charles Rivers Sprague-Dawley rat after intravenous administration; value range from 6.2 to 7.8
[7] = tested on: Rattus norvegicus; assay: Inhibition of passive cutaneous anaphylaxis (PCA) in Charles Rivers Sprague-Dawley rat after intravenous administration; value range from 0.4 to 0.9
[8] = tested on: Rattus norvegicus; assay: Inhibition of passive cutaneous anaphylaxis (PCA) in Charles Rivers Sprague-Dawley rat after intravenous administration; value range from 0.1 to 0.4
[9] = tested on: Rattus norvegicus; assay: Inhibition of passive cutaneous anaphylaxis (PCA) in Charles Rivers Sprague-Dawley rat after intravenous administration; value range from 1.5 to 2.9
[10] = tested on: Rattus norvegicus; assay: Inhibition of passive cutaneous anaphylaxis (PCA) in Charles Rivers Sprague-Dawley rat after intravenous administration; value range from 1.4 to 2.4
[11] = tested on: Rattus norvegicus; assay: Inhibition of passive cutaneous anaphylaxis (PCA) in Charles Rivers Sprague-Dawley rat after intravenous administration; value range from 1.8 to 2.7
[12] = tested on: Rattus norvegicus; assay: Inhibition of passive cutaneous anaphylaxis (PCA) in Charles Rivers Sprague-Dawley rat after intravenous administration; value range from 1.1 to 1.8
[13] = tested on: Rattus norvegicus; assay: Inhibition of passive cutaneous anaphylaxis (PCA) in Charles Rivers Sprague-Dawley rat after intravenous administration; value range from 0.2 to 0.3
[14] = tested on: Rattus norvegicus; assay: Inhibition of passive cutaneous anaphylaxis (PCA) in Charles Rivers Sprague-Dawley rat after intravenous administration; value range from 0.8 to 1.6
[15] = tested on: Rattus norvegicus; assay: Inhibition of passive cutaneous anaphylaxis (PCA) in Charles Rivers Sprague-Dawley rat after intravenous administration; value range […]
[16] = tested on: Rattus norvegicus; assay: Inhibition of passive cutaneous anaphylaxis (PCA) in Charles Rivers Sprague-Dawley rat after intravenous administration; value range from 0.03 to 0.6
[17] = tested on: Rattus norvegicus; assay: Inhibition of passive cutaneous anaphylaxis (PCA) in Charles Rivers Sprague-Dawley rat after intravenous administration; value range from 0.3 to 0.8
[18] = tested on: Rattus norvegicus; assay: Inhibition of passive cutaneous anaphylaxis (PCA) in Charles Rivers Sprague-Dawley rat after intravenous administration; value range from 1.9 to 22.5
[19] = tested on: Rattus norvegicus; assay: Inhibition of passive cutaneous anaphylaxis (PCA) in Charles Rivers Sprague-Dawley rat after intravenous administration; value range from 0.05 to 0.6
[20] = tested on: Rattus norvegicus; assay: Inhibition of passive cutaneous anaphylaxis (PCA) in Charles Rivers Sprague-Dawley rat after intravenous administration; value range from 1.6 to 3.0
[21] = tested on: Rattus norvegicus; assay: Inhibition of passive cutaneous anaphylaxis (PCA) in Charles Rivers Sprague-Dawley rat after intravenous administration; value range from 0.8 to 1.5

For `CCCc1c(O)ccc2c(O)c3nnnc-3oc12`, the ED50 [1] was 1.1 mg/kg.
Work on `COc1ccc2c(O)c3nnnc-3oc2c1C` yielded an ED50 [2] of 0.4 mg/kg.
In the case of `Cc1ccc2oc3nnnc-3c(O)c2c1`, the ED50 [3] is reported as 5 mg/kg.
`CCCc1ccc(OC)c2c(O)c3nnnc-3oc12` gave an ED50 [4] greater than 10 mg/kg.
Compound `Oc1cccc2oc3nnnc-3c(O)c12` has an ED50 [5] of 1.7 mg/kg.
`CCCc1ccc(O)c2c(O)c3nnnc-3oc12` showed an ED50 [6] of 7 mg/kg.
For `Cc1ccc2oc3nnnc-3c(O)c2c1C`, the ED50 [7] was 0.6 mg/kg.
Compound `Cc1cc2oc3nnnc-3c(O)c2cc1C` has an ED50 [2] of 0.4 mg/kg.
`Cc1c(OS(C)(=O)=O)ccc2c(O)c3nnnc-3oc12` gave an ED50 [8] of 0.2 mg/kg.
For `O=C([O-])c1cc(=O)c2c(OCC(O)COc3cccc4oc(C(=O)[O-])cc(=O)c34)cccc2o1.[Na+].[Na+]` [CROMOLYN SODIUM], the ED50 [9] was 2 mg/kg.
`Oc1ccc2c(O)c3nnnc-3oc2c1` gave an ED50 [10] of 1.8 mg/kg.
`Cc1c(O)ccc2c(O)c3nnnc-3oc12` was tested, and the ED50 [11] was 2.2 mg/kg.
With `Oc1c2nnnc-2oc2ccccc12` the ED50 [12] was 1.4 mg/kg.
`CS(=O)(=O)Oc1ccc2c(O)c3nnnc-3oc2c1` gave an ED50 [13] of 0.2 mg/kg.
In the case of `Cc1cc(C)c2c(O)c3nnnc-3oc2c1C`, the ED50 [14] is reported as 1.2 mg/kg.
With `COc1ccc2oc3nnnc-3c(O)c2c1` the ED50 [15] was 1.7 mg/kg.
`COc1ccc2c(O)c3nnnc-3oc2c1` was tested, and the ED50 [16] was 0.3 mg/kg.
In the case of `Oc1c2nnnc-2oc2cc3c(cc12)CCCC3`, the ED50 [17] is reported as 0.6 mg/kg.
`COc1cccc2oc3nnnc-3c(O)c12` showed an ED50 [18] of 3.5 mg/kg.
Compound `Cc1ccc2c(O)c3nnnc-3oc2c1C` has an ED50 [19] of 0.3 mg/kg.
For `Oc1c2nnnc-2oc2ccc3c(c12)CCCC3`, the ED50 [20] was 2.1 mg/kg.
In the case of `CCCc1c(OC)ccc2c(O)c3nnnc-3oc12`, the ED50 [21] is reported as 1 mg/kg.
